Measured values from patent US20060099712A1, “Correlation of anti-cancer activity of dyes with redox potentials” (Eastman Kodak Company, priority 2004, published 2006).
In brackets after ≈: the same amount, converted by molar mass. Several values for one entry are separate records, joined by “and”; a condition that tells them apart may be missing. Identical values can stand only once. Like-named read-outs stand apart in the source and are kept apart here.

System: CX-1 Human Colon Carcinoma
Experiment: Clonogenic dye screening assay, CX-1 cells (IC50)
Assay type: cell-based
Design: CX: unit not given here
Settings: for Selectivity: IC50 CV-1 / IC50 cell line 2 (CX-1); for IC50: Homo sapiens; for CX (IC50 in the CX-1 cell line): 3 hrs treatment, unit from method b117-118; for CV/CX: selectivity ratio of IC50 values; for CV/CX (selectivity, kill ratio): ratio of IC50 in normal CV-1 line to IC50 in carcinoma CX-1 line
In short: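 Cells seeded 16-30 h ahead (2000 CX-1 or 1000 CV-1 per well), exposed to serially diluted dyes for 3 h at 37 °C, rinsed three times, then grown into colonies. Eight-point curves spanned 0.32-0.0015 μg/mL (CX-1) and 3.2-0.025 μg/mL (CV-1). IC50 is the concentration killing 50% of cells.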

[1] = CX-1, cell line 2, CX-1, unit from method, read-out: IC50 (concentration at which 50% of the cells of the culture are killed)
[2] = CX-1, Table XIX, CX-1 cells, read-out: CX

Row | CX (IC50 in the CX-1 cell line) (colonies after 7-10 days) [µg/mL] | IC50 [2] [µg/mL] | IC50 (CX-1, 3 hrs treatment, colonies after 7-10 days, unit from method, read-out: CX (IC50 in the CX-1 cell line)) [µg/mL] | Structure (SMILES) | Selectivity | IC50 (concentration at which 50% of the cells of the culture are killed) (cell line 2, CX-1, unit from method) | IC50 [1] [µg/mL] | CX (Table XIX, CX-1 cells) | CV/CX (Table XIX) | CV/CX (Table XV) | CV/CX (selectivity, kill ratio) | IC50 (CX-1, read-out: CX) [µg/mL] | IC50 (CX-1, read-out: CX (IC50 in the CX-1 cell line)) [µg/mL]
1 |  |  |  | CCN1C(=CC=Cc2sc3cc4ccccc4cc3[n+]2CC)Sc2cc3ccccc3cc21 [AC-2] | >60 | <.005 µg/mL |  |  |  |  |  |  | 
2 |  |  |  | COc1cccc2c1C(=O)c1c(O)c3c(c(O)c1C2=O)C[C@@](O)(C(=O)CO)C[C@@H]3O[C@H]1C[C@H](N)[C@H](O)[C@H](C)O1 [Adriamycin, reference compound] | 1.5 |  | 0.55 (≈ 1.01 µM) |  |  |  |  |  | 
3 | <0.005 |  |  | CCN1/C(=C/C=C/c2sc3ccccc3[n+]2CC)Sc2ccccc21.[I-] [Dye D-101] | 100 |  |  | 0.004 | 100.000 and 75.000 | 100.0 | 100 and >100.0 |  | 
4 |  |  |  | CCN1/C(=C\C=C\C2=[N+](CC)c3ccccc3C2(C)C)C(C)(C)c2ccccc21 [Dye D-103] |  |  |  |  | 500.000 | 500.0 | 500 | 0.01 | 0.01
5 | <0.005 | 0.004 |  | CCN1/C(=C/C=C/c2sc3cc4ccccc4cc3[n+]2CC)Sc2cc3ccccc3cc21 [Dye D-109] |  |  |  |  | 75.000 |  | 60 and >60.0 |  | 
6 |  | 0.03 | 0.03 | CCN1C(=CC=Cc2sc3cc4ccccc4nc3[n+]2CC)Sc2cc3ccccc3nc21 [Dye D-150] | 100 |  | 0.03 |  | 100.000 |  | 100 |  | 
7 | 0.05 |  |  | CCN1/C(=C/C=C/c2sc3cc4ccccc4cc3[n+]2CC)Sc2cc3ccccc3cc21 [Dye D-160] |  |  | < 0.005 | 0.004 | 75.000 |  | 100 |  | 
